# Data as given in PMC10829696, “Identification, expression profiles, and binding properties of chemosensory protein 18 in Plutella xylostella (Lepidoptera: Plutellidae)” (Journal of Insect Science, 2024).
# Where two headings read alike, the source gives them in different places.
# Legend:
# PxylCSP18 [1] = target: T1, PxylCSP18 (Plutella xylostella, UniProt A0ABQ7Q8H2, Q80P); assay: Titration of PxylCSP18 with fluorescent probe 1-NPN (Scatchard plot); assay type: binding; conditions: 1 µM protein in 20 mM Tris–HCl pH 7.4, 1-NPN 1 to 17 µM, Scatchard plots; read-out: dissociation constant (K1-NPN)
# Description: The fluorescence competitive binding assays were performed as described previously ([Fu et al. 2020], [Hua et al. 2021]) with some modifications. Briefly, the emission spectra of the fluorescent probe, N-phenyl-1-naphthylamine (1-NPN, Sigma-Aldrich, USA), were recorded from 350 to 600 nm with 5 nm width of the emission slits and the excitation wavelength was 337 nm. To measure the affinity of 1-NPN to PxylCSP18, 1 µM protein in 20 mM Tris–HCl buffer (pH 7.4) was titrated with 1-NPN to final concentrations ranging from 1 to 17 µM in 1 cm light path quartz cuvette. After incubation for 3 min, the fluorescence intensity for each test was detected on an RF-5301 fluorescence spectrophotometer (Shimadzu, Japan). The average data of the recorded fluorescence intensity at the maximum emission wavelength were linearized using the Scatchard equation, and the dissociation constants for 1-NPN were then calculated ([Sideris et al. 1992], [Hua et al. 2021]). Sixteen ligands, including 3 sex pheromone components ((Z)-11-hexadecenal, (Z)-11-hexadecenyl acetate, and (Z)-11-hexadecenyl alcolol) and some host volatiles (terpene, ketone, aldehyde, alcohol, and ester volatiles), were detected the affinities of PxylCSP18. The final concentrations for each ligand ranging from 1 to 17 µM were added into the mixed solution of 1-NPN probe (1 µM) and PxylCSP18 (1 µM). […]
# PxylCSP18 [2] = target: T1, PxylCSP18; assay: Fluorescence competitive binding assays with 1-NPN as probe; conditions: for Ki: Ki = [IC50]/(1 + [1-NPN]/K1-NPN)
# Description: The coding region of mature PxylCSP18 was cloned from the synthesized cDNA with the specific primers, in which an EcoR V and an Xho I restriction sites were introduced (Table 1). The amplified product was cloned into the pET-32a vector (Novagen, USA), followed by transformation into the competent E. coli BL21 (DE3) (Tiangen, China). The expression of PxylCSP18 in the bacteria was induced by 0.6 mM isopropyl-beta-D-thiogalactopyranoside (IPTG) overnight. Subsequently, the bacterial cells were collected through centrifugation and resuspended into phosphate-buffered saline (PBS) solution, then homogenized through sonication on ice using an ultrasonic processor (Sonics Vibra-Cell, USA). PxylCSP18 was purified from the soluble faction using a Ni^2+-NTA column (Roche, Switzerland) through a stepwise elution with 20, 50, 100, 150, and 500 mM imidazole in PBS. […] Finally, the PxylCSP18 was concentrated through ultrafiltration using a centrifugal device (3 kDa, Merck Millipore, USA), and the concentration was determined using the BCA Protein Assay Kit (Sangon, China). The purified recombinant PxylCSP18 was verified by peptide mass fingerprinting (Sangon Biotech, China).
# Briefly, the emission spectra of the fluorescent probe, N-phenyl-1-naphthylamine (1-NPN, Sigma-Aldrich, USA), were recorded from 350 to 600 nm with 5 nm width of the emission slits and the excitation wavelength was 337 nm. […] Sixteen ligands, including 3 sex pheromone components ((Z)-11-hexadecenal, (Z)-11-hexadecenyl acetate, and (Z)-11-hexadecenyl alcolol) and some host volatiles (terpene, ketone, aldehyde, alcohol, and ester volatiles), were detected the affinities of PxylCSP18. […] The acquired data were calculated from the Scatchard plots for dissociation constants (Kd) and the curves, assuming PxylCSP18 was active completely and bound to the ligands in a 1:1 ratio at saturation.
# PxylCSP11 = tested on: PxylCSP11; parameters: method as in Fu et al. 2020; conditions: ref Fu et al. 2020; cited from earlier work
# P. xylostella adults = assay: Y-tube olfactometer bioassays after RNAi knockdown of PxylCSP18; assay type: in vivo, Plutella xylostella; conditions: day-2 unmated, 10 μg/μl in paraffin oil, dsCSP18 vs dsGFP
# Description: The pupae the day before eclosion were collected and used for RNA interference. The pupae were anesthetized on ice and then injected with 1 μl of dsRNA (10 μg/μl) at the dorsal site of the abdomen using a Nanoject III micro-injector (Drummond Scientific, Broomall, PA) equipped with glass capillaries prepared using a P-97 micropipette puller (Sutter Instrument Co., Novato, CA). The antennae of day-2 unmated female and male adults were collected to detect the efficiency of RNAi-mediated knockdown of PxylCSP18 through […]. Three independent biological replicates were performed.
# The responses of the day-2 unmated female and male adults to the volatile compounds were performed using a glass Y-tube olfactometer with a central glass tube (5 cm long × 2.5 cm ID) and 2 lateral glass arms (15 cm long × 2.5 cm ID) with a 75° inside angle as described previously ([Yan et al. 2023]), with some modifications. Before bioassays, all glasswares were cleaned and washed with absolute alcohol and dried at 100 °C for 5 min. A moistened and activated charcoal-filtered airflow (350 mL/min) was pumped into each source container using an atmospheric sampling instrument (QC-1S, Beijing Institute of Labor Protection Science, Beijing, China). The behavioral response of male and female adults of P. xylostella to trans-2-hexen-1-ol, isopropyl isothiocyanate, myrcene, linalool were then observed. Each component was diluted with paraffin oil to 10 μg/μl. For each chemical, an aliquot of 10 μl was applied to a strip of filter paper (0.5 × 5 cm) and placed in 1 source container. A filter paper strip loaded with the same volume of paraffin oil and placed in the second source container was used as a control. Each test male or female moth was released at the entrance of the central glass tube of the Y-tube olfactometer and observed for 5 min. […] The positions of the arms were reversed after 5 insects to avoid positional bias. The experimental device was cleaned after every 10 insects by washing it with absolute acetone and followed by heating at 100 °C for 5 min. Each concentration of compound stimulus was tested with 30 insects, which successfully made a “choice.” The choice index was calculated as the number of responses of moths to […] divided by the total number of test moths.
# P. xylostella = conditions: ref Song et al. 2022; cited from earlier work
# PxylCSP1 = tested on: PxylCSP1; parameters: method as in Liu et al. 2010; conditions: ref Liu et al. 2010; cited from earlier work
# [3] = 1-NPN 1 µM, PxylCSP18 1 µM, ligand 1 to 17 µM, concentration of ligand halving the initial fluorescence, N.D. = no significant binding detected, read-out: IC50
# [4] = 1-NPN 1 µM, PxylCSP18 1 µM, N.D. = no significant binding detected
# [5] = 1-NPN 1 µM, PxylCSP18 1 µM, ligand 1 to 17 µM
# T1 sequence (A0ABQ7Q8H2 entry or part of it Q80P): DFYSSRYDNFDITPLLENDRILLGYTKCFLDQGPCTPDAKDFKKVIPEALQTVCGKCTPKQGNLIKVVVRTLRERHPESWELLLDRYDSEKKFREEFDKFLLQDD
compound,measurement,setting,value
"c1ccc(Nc2cccc3ccccc23)cc1 [1-NPN, N-phenyl-1-naphthylamine]",Kd,PxylCSP18 [1],9.85 µM
CCCCCCCCC=O [1-Nonanal],IC50,PxylCSP18 [2],7.94 µM
C=CC(O)CC (stereo not drawn) [1-Penten-3-ol],IC50,PxylCSP18 [2],7.17 µM
"CCCC(C)CC(C)C (stereo not drawn) [2,4-dimethylheptane]",affinity of PxylCSP11,PxylCSP11,good affinities
CCC/C=C/CO [(E)-2-Hexenal-1-ol],IC50,PxylCSP18 [2]; [3],7.66 µM
same,Ki,PxylCSP18 [2]; [4],6.11 µM
same,attractive effects to P. xylostella female adults after knocked down the expression of PxylCSP18,P. xylostella adults,decreased inconspicuously
same,attractive effects to P. xylostella male adults after knocked down the expression of PxylCSP18,P. xylostella adults,significantly decreased
CC/C=C\CCOC(C)=O [(Z)-3-Hexenyl acetate],IC50,PxylCSP18 [2],9.09 µM
CCCC/C=C\CCCCCCCCCC=O [(Z)-11-hexadecenal],binding affinity of PxylCSP18 to ligand (in words),PxylCSP18 [2]; [5],no significant binding affinity
CCCC/C=C\CCCCCCCCCCOC(C)=O [(Z)-11-hexadecenyl acetate],binding affinity of PxylCSP18 to ligand (in words),PxylCSP18 [2]; [5],no significant binding affinity
same,affinity of PxylCSP11,PxylCSP11,good affinities
CCCC/C=C\CCCCCCCCCCO [(Z)-11-hexadecenyl alcolol],binding affinity of PxylCSP18 to ligand (in words),PxylCSP18 [2]; [5],no significant binding affinity
C=CCN=C=S [Allyl isothiocyanate],IC50,PxylCSP18 [2],7.23 µM
same,affinity of PxylCSP11,PxylCSP11,good affinities
CCCCN=C=S [Buty1 isothiocyanate],IC50,PxylCSP18 [2],8.86 µM
CCCCCC=O [Caproldehyde],IC50,PxylCSP18 [2]; [3],7.49 µM
same,Ki,PxylCSP18 [2]; [4],5.98 µM
CC(C)N=C=S [Isopropyl isothiocyanate],IC50,PxylCSP18 [2],8.17 µM
same,attractive effects to P. xylostella female adults after knocked down the expression of PxylCSP18,P. xylostella adults,significantly weakened
same,attractive effects to P. xylostella male adults after knocked down the expression of PxylCSP18,P. xylostella adults,significantly decreased
C=C(C)[C@H]1CC=C(C)CC1 [Limonene],IC50,PxylCSP18 [2]; [3],1.85 µM
same,Ki,PxylCSP18 [2]; [4],1.48 µM
C=CC(C)(O)CCC=C(C)C (stereo not drawn) [Linalool],IC50,PxylCSP18 [2],7.61 µM
same,repellent effects to P. xylostella female adults after knocked down the expression of PxylCSP18,P. xylostella adults,significantly weakened
same,repellent effects to P. xylostella male adults after knocked down the expression of PxylCSP18,P. xylostella adults,decreased inconspicuously
C=CC(=C)CCC=C(C)C [Myrcene],behavioural effect on P. xylostella,P. xylostella,repellent
same,IC50,PxylCSP18 [2],1.34 µM
same,repellent effects to P. xylostella female adults after knocked down the expression of PxylCSP18,P. xylostella adults,decreased inconspicuously
same,repellent effects to P. xylostella male adults after knocked down the expression of PxylCSP18,P. xylostella adults,decreased inconspicuously
CC1(C)[C@H]2O[C@H]2[C@H]2[C@](C)(O)[C@@H]3CC[C@@H]4[C@@H](O)[C@@]3(C[C@@H](O)[C@@]21O)C[C@@]4(C)O [Rhodojaponin-III],ability of PxylCSP1 to bind,PxylCSP1,remarkable ability to bind
OCCc1ccccc1 [phenethyl alcohol],affinity of PxylCSP11,PxylCSP11,good affinities
S=C=NCCc1ccccc1 [phenethyl isothiocyanate],affinity of PxylCSP11,PxylCSP11,good affinities
CC(=O)/C=C/C1C(C)=CCCC1(C)C (stereo not drawn) [α-Ionone],IC50,PxylCSP18 [2],4.19 µM
CC1=CC=C(C(C)C)CC1 [α-Terpinene],IC50,PxylCSP18 [2],1.29 µM
same,affinity of PxylCSP11,PxylCSP11,good affinities
CC1=CC[C@@H](C(C)(C)O)CC1 [α-terpineol],affinity of PxylCSP11,PxylCSP11,good affinities
CC1=CCC(C(C)C)=CC1 [γ-Terpinene],behavioural effect on P. xylostella,P. xylostella,repellent
same,IC50,PxylCSP18 [2],1.21 µM
